Experimental findings from PubChem BioAssay (NCI) are described below.

Structures are written as SMILES.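 Five concentrations, 48 hours, 96-well plates. TGI denotes the concentration required for complete inhibition of growth.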 Bounds are passed on as bounds.

Test in all cases: inhibition of tumour cell growth, NCI panel, 48 h
The subject of assay [1] is MDA-MB-231 breast.
The test system of assay [2] is HOP-92 NSCLC.
Assay [3] has as its system HOP-62 NSCLC.
In assay [4] the test system is SK-MEL-28 melanoma.
The subject of assay [5] is SR leukemia.
In assay [6] the test system is NCI-H226 lung.
For assay [7], the system named is NCI-H460 lung.
Assay [8] deals with HCT-116 colon.
The subject of assay [9] is RPMI-8226 leukemia.
The test system of assay [10] is IGROV1 ovarian.
The test system of assay [11] is A549 NSCLC.
The subject of assay [12] is BT-549 breast.

For the compound `COc1cc(C=C2C(C)=NN(c3cccc(Cl)c3)C23C(Cl)C(=O)N3c2nc3ccccc3s2)ccc1O` (centres undefined), the TGI in assay [1] was 26.7 µM; in [2] it was 26.1 µM; in [3], 69.1 µM; in assay [4], above 100 µM; in assay [5], 17.2 µM; in assay [6] it was 63.6 µM. Further, the TGI in assay [7] is 66.1 µM; in [8], 45 µM; in assay [9] it was 30.5 µM; in [10], 48.4 µM.
In the case of `O=c1[nH]c2cc([N+](=O)[O-])ccc2nc1/C(=N/Nc1ccccc1)C(O)c1ccc(C(O)/C(=N\Nc2ccccc2)c2cnc3cc([N+](=O)[O-])ccc3n2)cc1` (centres undefined), the TGI in [2], in assay [3], in assay [4], in [5], in [11] and in assay [7] was above 100 µM throughout. Also, the TGI in [8], in [9] and in assay [10] was above 100 µM in each case.
Turning to `CS(=O)(=O)c1c(N)c2nc(Cl)cn2c2nc3ccccc3nc12`, the TGI in assay [3], in assay [4], in [5], in [11], in assay [6] and in [7] was above 100 µM in each case. Further, the TGI in assay [8], in assay [9] and in [10] was above 100 µM throughout.
As to `CC(=O)c1ccc2c(ccc(=O)n2C)c1`, the TGI in assay [2], in assay [3], in assay [4], in assay [11], in assay [6] and in assay [7] was above 100 µM throughout. Moreover, the TGI in [8], in [9] and in assay [10] was above 100 µM in each case.
As for `CN(C)CC1COC2Cc3ccccc3C1O2` (centres undefined), the TGI in [1], in [2], in assay [3], in [4], in assay [5] and in assay [11] was above 100 µM in each case. In addition, the TGI in assay [6], in assay [7], in assay [8], in assay [9] and in assay [10] was above 100 µM in each case.
With `CCN1C[C@]2(C)CC[C@H](OC)C34C1C([C@H](OC(C)=O)[C@@H]32)[C@@]1(OC)C[C@H](OC)[C@H]2C[C@@H]4[C@@H]1[C@H]2O`, the TGI in assay [2], in [3], in assay [4], in assay [11], in assay [6] and in assay [7] was above 100 µM each time. Moreover, the TGI in assay [8], in [9] and in assay [10] was above 100 µM in each case.
With `CN1CCCCC(C#N)(c2ccccc2)CC1` (centres undefined), the TGI in assay [2], in [3], in assay [4], in assay [5], in assay [11] and in assay [7] was above 100 µM throughout. In addition, the TGI in assay [8], in [9] and in assay [10] was above 100 µM throughout.
With `CCCCOC(=O)NC(Nc1cccc(C(F)(F)F)c1)(C(F)(F)F)C(F)(F)F`, the TGI in assay [1] is above 100 µM; in assay [2] it was 64.7 µM; in [3], above 100 µM; in assay [4] it was above 100 µM; in [5], 60.4 µM; in assay [11], above 100 µM. In addition, the TGI in assay [6] is above 100 µM; in [7], above 100 µM; in assay [8], above 100 µM; in assay [9] it was 61.5 µM; in [10], above 100 µM.
Consider `CCOC(=O)Cc1csc2[n+]1C(=O)/C(=C\c1cccc(Cl)c1Cl)S2`, for which the TGI in assay [1] was determined as 87.4 µM; in assay [2], 26.8 µM; in assay [3], 46.9 µM; in assay [4], 50.9 µM; in assay [11] it was 35.8 µM; in assay [12] it was 49 µM. The TGI came to 32 µM in assay [6], 45.8 µM in [7], 25.7 µM in assay [8] and 50.6 µM in assay [10].
Consider `CN(CCO)c1nc(N)cc(=O)[nH]1`, for which the TGI in assay [2], in assay [3], in assay [4], in assay [5], in assay [11] and in assay [6] was above 100 µM in each case. The TGI in [7], in assay [8], in [9] and in [10] was above 100 µM throughout.
For `CCCC(=O)O[C@H]1C=C2C[C@@]34SS[C@]5(CC6=C[C@H](OC(C)=O)[C@@H]7O[C@@H]7[C@H]6N5C3=O)C(=O)N4[C@@H]2[C@H]2O[C@H]21`, the TGI was determined as 0.246 µM in [1]; 0.0941 µM in assay [2]; 0.0892 µM in assay [3]; 0.235 µM in assay [4]; 50 µM in assay [5]; 1.68 µM in assay [11]. The TGI in assay [6] was determined as 1.77 µM; in assay [7], 0.379 µM; in assay [8], 0.0285 µM; in assay [9], 2.29 µM; in assay [10], 0.0499 µM.
As to `CCN(CC)CCCC(C)Nc1ccnc2ccc3nn(C)nc3c12` (centres undefined), the TGI in assay [3], in [5], in [11], in assay [6], in assay [7] and in assay [8] was above 100 µM in each case. Further, the TGI in assay [9] and in assay [10] was above 100 µM each time.
In the case of `COC(C(=O)C(O)C(C)O)C1CC2C=C3C=C(OC4CC(OC5CC(O)C(OC)C(C)O5)C(OC(C)=O)C(C)O4)C(C)C(=O)C3=C(O)C2=C(O)C1OC1CC(OC2CC(OC3CC(C)(O)C(OC(=O)C(C)C)C(C)O3)C(O)C(C)O2)C(O)C(C)O1` (centres undefined), the TGI is below 0.01 µM in assay [1]; below 0.01 µM in [3]; below 0.01 µM in [4]; below 0.01 µM in assay [5]; below 0.01 µM in assay [6]; above 100 µM in assay [8]. For the same compound, the results for the TGI in assay [9] and in assay [10] were below 0.01 µM and above 100 µM, respectively.
